In brackets after ≈: the same amount, converted by molar mass.
What was measured:
[1] = tested on: Pseudomonas aeruginosa; test: Antimicrobial activity against Pseudomonas aeruginosa PAO1 by CLSI method; format: functional
[2] = tested on: HeLa; test: (§1) Cytotoxicity against human HeLa cells by MTS assay; format: cell-based; details: hela
[3] = tested on: Escherichia coli; test: Antimicrobial activity against TolC+ Escherichia coli 700 by CLSI method; format: functional
[4] = tested on: Staphylococcus aureus; test: Antimicrobial activity against methicillin-resistant Staphylococcus aureus 1094 by CLSI method; format: functional
[5] = tested on: Klebsiella pneumoniae; test: Antimicrobial activity against Klebsiella pneumoniae 13882 by CLSI method; format: functional
[6] = tested on: Bacillus subtilis; test: Antimicrobial activity against Bacillus subtilis BD54 by CLSI method; format: functional
[7] = tested on: Escherichia coli; test: Antimicrobial activity against TolC-deficient Escherichia coli by CLSI method; format: functional; details: Escherichia coli; read-out: MIC
[8] = tested on: Bacillus anthracis; test: Antimicrobial activity against Bacillus anthracis Sterne by CLSI method; format: functional
[9] = tested on: Pseudomonas aeruginosa; test: Antimicrobial activity against mexAB-oprM deficient Pseudomonas aeruginosa PAO1 harboring by CLSI method; format: functional
[10] = tested on: Enterococcus faecalis; test: Antimicrobial activity against vancomycin-resistant Enterococcus faecalis ATCC 51575 by CLSI method; format: functional
[11] = as §1; format: cell-based; details: HeLa cells
[12] = Pseudomonas aeruginosa, PAO1, read-out: MIC
[13] = Escherichia coli, 700, read-out: MIC
[14] = Staphylococcus aureus, 1094, read-out: MIC
[15] = Klebsiella pneumoniae, 13882, read-out: MIC
[16] = Bacillus subtilis, BD54, read-out: MIC
[17] = Bacillus anthracis, Sterne, read-out: MIC
[18] = Enterococcus faecalis, ATCC 51575, read-out: MIC

SMILES | MIC [1] | CC50 [2] | MIC [3] | MIC [4] | MIC [5] | MIC [6] | MIC [7] | MIC [8] | MIC [9] | MIC [10] | MIC [1, 12] | CC50 [11] | MIC [3, 13] | MIC [4, 14] | MIC [5, 15] | MIC [6, 16] | MIC [8, 17] | MIC [10, 18]
CC1CNC(c2ccc3cc(-c4ccc(-c5cc6ccc(C7=NC(C)CN7)cc6o5)cc4)[nH]c3c2)=N1 (stereo in doubt; P6b) | 80 µg/mL (≈ 169 µM) | 7.6 µg/mL (≈ 16 µM) | 1.09 µg/mL (≈ 2.3 µM) | 0.55 µg/mL (≈ 1.16 µM) | 5 µg/mL (≈ 10.6 µM) | 0.35 µg/mL (≈ 0.739 µM) | 0.63 µg/mL (≈ 1.33 µM) | 0.63 µg/mL (≈ 1.33 µM) | 80 µg/mL (≈ 169 µM) | 0.63 µg/mL (≈ 1.33 µM) |  |  |  |  |  |  |  | 
c1cc2cc(-c3ccc(-c4cn5ccc(C6=NCCN6)cc5n4)cc3)[nH]c2cc1C1=NCCN1 |  |  |  |  |  |  | 0.31 µg/mL (≈ 0.696 µM) |  | > 80 µg/mL |  | 40 µg/mL (≈ 89.8 µM) | 2.5 µg/mL (≈ 5.61 µM) | 2.5 µg/mL (≈ 5.61 µM) | > 80 µg/mL | 5 µg/mL (≈ 11.2 µM) | 2.5 µg/mL (≈ 5.61 µM) | > 80 µg/mL | > 80 µg/mL
c1cc2cc(-c3ccc(-c4cn5cc(C6=NCCCN6)ccc5n4)cc3)[nH]c2cc1C1=NCCCN1 |  | 19.7 µg/mL (≈ 41.6 µM) |  |  |  |  | 0.31 µg/mL (≈ 0.655 µM) |  | 5 µg/mL (≈ 10.6 µM) |  | 5 µg/mL (≈ 10.6 µM) |  | 5 µg/mL (≈ 10.6 µM) | 0.63 µg/mL (≈ 1.33 µM) | 5 µg/mL (≈ 10.6 µM) | 0.08 µg/mL (≈ 0.169 µM) | 1.25 µg/mL (≈ 2.64 µM) | 0.63 µg/mL (≈ 1.33 µM)
c1cc2cc(-c3ccc(-c4cc5ccc(C6=NCCN6)cc5o4)cc3)[nH]c2cc1C1=NCCN1 |  |  |  |  |  |  | 0.24 µg/mL (≈ 0.539 µM) |  | 15 µg/mL (≈ 33.7 µM) |  | 10 µg/mL (≈ 22.4 µM) | 9.7 µg/mL (≈ 21.8 µM) | 0.47 µg/mL (≈ 1.05 µM) | 0.16 µg/mL (≈ 0.359 µM) | 0.94 µg/mL (≈ 2.11 µM) | 0.16 µg/mL (≈ 0.359 µM) | 0.31 µg/mL (≈ 0.696 µM) | 0.16 µg/mL (≈ 0.359 µM)
c1cc2cc(-c3ccc(-c4nc5ccc(C6=NCCN6)cc5[nH]4)cc3)[nH]c2cc1C1=NCCN1 |  |  |  |  |  |  | 0.31 µg/mL (≈ 0.696 µM) |  | 40 µg/mL (≈ 89.8 µM) |  | 20 µg/mL (≈ 44.9 µM) | 8.6 µg/mL (≈ 19.3 µM) | 10 µg/mL (≈ 22.4 µM) | 1.25 µg/mL (≈ 2.81 µM) | 20 µg/mL (≈ 44.9 µM) | 0.16 µg/mL (≈ 0.359 µM) | 5 µg/mL (≈ 11.2 µM) | 0.63 µg/mL (≈ 1.41 µM)
c1cc2cc(-c3ccc(-c4cc5ccc(C6=NCCCN6)cc5o4)cc3)[nH]c2cc1C1=NCCCN1 |  |  |  |  |  |  | 0.16 µg/mL (≈ 0.338 µM) |  | 0.47 µg/mL (≈ 0.992 µM) |  | 0.63 µg/mL (≈ 1.33 µM) | 26 µg/mL (≈ 54.9 µM) | 0.63 µg/mL (≈ 1.33 µM) | 0.1 µg/mL (≈ 0.211 µM) | 0.55 µg/mL (≈ 1.16 µM) | 0.14 µg/mL (≈ 0.296 µM) | 5 µg/mL (≈ 10.6 µM) | 0.39 µg/mL (≈ 0.824 µM)
c1cc2cc(-c3ccc(-c4cn5ccc(C6=NCCCN6)cc5n4)cc3)[nH]c2cc1C1=NCCCN1 |  | 20.9 µg/mL (≈ 44.1 µM) |  |  |  |  | 0.31 µg/mL (≈ 0.655 µM) |  | > 80 µg/mL |  | 40 µg/mL (≈ 84.5 µM) |  | 2.5 µg/mL (≈ 5.28 µM) | 2.5 µg/mL (≈ 5.28 µM) | 5 µg/mL (≈ 10.6 µM) | 0.16 µg/mL (≈ 0.338 µM) | 1.25 µg/mL (≈ 2.64 µM) | 1.25 µg/mL (≈ 2.64 µM)
c1cc2cc(-c3ccc(-c4cc5ccc(C6=NCCCN6)cc5o4)cn3)[nH]c2cc1C1=NCCCN1 |  | 15.6 µg/mL (≈ 32.9 µM) |  |  |  |  | 0.16 µg/mL (≈ 0.337 µM) |  |  |  | 1.25 µg/mL (≈ 2.63 µM) |  | 1.25 µg/mL (≈ 2.63 µM) | 0.31 µg/mL (≈ 0.653 µM) | 1.56 µg/mL (≈ 3.29 µM) | 0.08 µg/mL (≈ 0.169 µM) | 0.16 µg/mL (≈ 0.337 µM) | 0.39 µg/mL (≈ 0.822 µM)
c1cc2cc(-c3ccc(-c4nc5ccc(C6=NCCCN6)cc5[nH]4)cc3)[nH]c2cc1C1=NCCCN1 |  |  |  |  |  |  | 0.31 µg/mL (≈ 0.655 µM) |  | 2.5 µg/mL (≈ 5.28 µM) |  | 2.5 µg/mL (≈ 5.28 µM) | 27.6 µg/mL (≈ 58.3 µM) | 2.5 µg/mL (≈ 5.28 µM) | 0.31 µg/mL (≈ 0.655 µM) | 5 µg/mL (≈ 10.6 µM) | 0.08 µg/mL (≈ 0.169 µM) | 0.31 µg/mL (≈ 0.655 µM) | 0.31 µg/mL (≈ 0.655 µM)
c1cc2cc(-c3ccc(-c4cc5ccc(C6=NCCN6)cc5[nH]4)cc3)[nH]c2cc1C1=NCCN1 |  | 32.5 µg/mL (≈ 73.1 µM) |  |  |  |  | 0.16 µg/mL (≈ 0.36 µM) |  | 2.5 µg/mL (≈ 5.62 µM) |  | 7.5 µg/mL (≈ 16.9 µM) |  | 1.25 µg/mL (≈ 2.81 µM) | 0.16 µg/mL (≈ 0.36 µM) | 0.24 µg/mL (≈ 0.54 µM) | 0.12 µg/mL (≈ 0.27 µM) | 0.31 µg/mL (≈ 0.697 µM) | 0.16 µg/mL (≈ 0.36 µM)
c1cc2cc(-c3ccc(-c4cc5ccc(C6=NCCCN6)cc5s4)cc3)[nH]c2cc1C1=NCCCN1 |  |  |  |  |  |  | 0.31 µg/mL (≈ 0.633 µM) |  | 10 µg/mL (≈ 20.4 µM) |  | 10 µg/mL (≈ 20.4 µM) | 5.9 µg/mL (≈ 12 µM) | 0.63 µg/mL (≈ 1.29 µM) | 0.31 µg/mL (≈ 0.633 µM) | 1.25 µg/mL (≈ 2.55 µM) | 0.1 µg/mL (≈ 0.204 µM) | 0.16 µg/mL (≈ 0.327 µM) | 0.31 µg/mL (≈ 0.633 µM)
OC1CN=C(c2ccc3cc(-c4ccc(-c5cc6ccc(C7=NCC(O)CN7)cc6o5)cc4)[nH]c3c2)NC1 (centres undefined) |  |  |  |  |  |  | 0.16 µg/mL (≈ 0.316 µM) |  | 15 µg/mL (≈ 29.7 µM) |  | 6.3 µg/mL (≈ 12.5 µM) | 11.9 µg/mL (≈ 23.5 µM) | 2.5 µg/mL (≈ 4.94 µM) | 0.31 µg/mL (≈ 0.613 µM) | 1.09 µg/mL (≈ 2.16 µM) | 0.08 µg/mL (≈ 0.158 µM) | 0.55 µg/mL (≈ 1.09 µM) | 0.31 µg/mL (≈ 0.613 µM)
c1cc2oc(-c3ccc(-c4cc5ccc(C6=NCCCN6)cc5[nH]4)cc3)cc2cc1C1=NCCCN1 |  |  |  |  |  |  | 0.39 µg/mL (≈ 0.824 µM) |  | 2.5 µg/mL (≈ 5.28 µM) |  | 2.5 µg/mL (≈ 5.28 µM) | 8.5 µg/mL (≈ 17.9 µM) | 0.63 µg/mL (≈ 1.33 µM) | 0.31 µg/mL (≈ 0.655 µM) | 1.25 µg/mL (≈ 2.64 µM) | 0.08 µg/mL (≈ 0.169 µM) | 0.08 µg/mL (≈ 0.169 µM) | 0.08 µg/mL (≈ 0.169 µM)
